{
  "source": "patent US20130324598A1",
  "about": "“TREATING MYCOBACTERIAL INFECTION WITH CU+/++ BOOSTING THERAPEUTICS” (priority 2011, published 2013)",
  "key": {"[1]": {"tested_on": "M. tuberculosis (mc^26230)", "type": "cell-based, Mycobacterium tuberculosis"}, "macrophages": {"tested_on": "macrophages", "experiment": "Toxicity of GTSM and ATSM towards macrophages (50% reduction in viability)", "type": "cell-based", "excerpt": "Fluorescence intensity was a measure of cell viability and was shown as percent of viability of untreated cells that were not exposed to GTSM-Cu or ATSM-Cu. The inhibitory concentration (IC50) was estimated based on the shape of the curve, and indicates the concentration at which a 50% decrease in viability is observed, and the therapeutic index was estimated based on the lethal dose (LD50) of these compounds for macrophages, which indicates a 50% reduction in viability. The LD50 of GTSM towards macrophages, the main residential cell type for M. tuberculosis, is 10 μM. […] The therapeutic index calculates as TI=LD50/IC50"}, "[2]": {"conditions": "concentrations higher than 10 μM could not be tested"}},
  "note": "Like-named read-outs stand apart in the source and are kept apart here.",
  "data": [
    {"smiles": "CNC(=S)N/N=C(C)/C(C)=N/NC(=S)NC", "note": "[ATSM]", "values": [
      {"measurement": "Mycobacterium tuberculosis cell viability", "setting": "[1]", "result": "decreased significantly"},
      {"measurement": "toxicity towards macrophages", "setting": "macrophages; up to 10 μM", "result": "did not show any toxicity"},
      {"measurement": "solubility", "setting": "[2]", "result": "limited solubility"}
    ]},
    {"smiles": "CNC(=S)NN=CC=NNC(=S)NC", "note": "[GTSM]", "values": [
      {"measurement": "therapeutic index (TD50/IC50; TI=LD50/IC50)", "setting": "[1]; […], copper complex, estimated", "result": 25},
      {"measurement": "Mycobacterium tuberculosis cell viability", "setting": "[1]; complexed with copper, 10 μM copper, fluorescence 12 hours after AlamarBlue addition", "result": "decreased significantly"},
      {"measurement": "LD50 towards macrophages", "setting": "macrophages; 50% reduction in viability of macrophages", "result": 10, "unit": "µM"}
    ]},
    {"smiles": "CNC1=NN=C(C)C(C)=NN=C(NC)[S][Cu][S]1", "note": "[ATSM-Cu complex]", "values": [
      {"measurement": "activity against Mycobacterium tuberculosis", "setting": "[1]; copper complex, FIG. 5 / FIG. 6", "result": "active"}
    ]}
  ]
}
